What all share (type): cell-based
Test [1] addresses adenosine A2b receptor (A2bR) (Homo sapiens (Human), UniProt P29275). The test can be described thus: Inhibition of adenosine A2b receptor cAMP signaling pathway (HTRF cAMP, CHO-K1/A2bR cells). The note with it: Table 3; for IC50: CHO-K1/A2bR cells, ethyl carbazole 1 μM, cAMP HTRF. In short, it runs like this:
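CHO-K1 cells expressing human A2bR were preincubated with compound (0-100000 nM final) for 30 min at room temperature in HEPES/BSA buffer with rolipram and adenosine deaminase. They were then stimulated with 1 μM […] for 30 min. Intracellular cAMP was measured by HTRF after 1 h detection.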
(In general: Time-resolved FRET reads energy transfer from a long-lived donor to a nearby acceptor.)

Test [2] concerns the target adenosine A2a receptor (A2aR) (Homo sapiens (Human), UniProt P29274). The test can be described thus: Inhibition of adenosine A2a receptor cAMP signaling pathway (HTRF cAMP, CHO-K1/A2aR cells). The method in brief: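 CHO-K1 cells expressing human A2aR, preincubated 30 min at room temperature with compound (10000–0.001024 nM final) in HEPES/BSA buffer with rolipram and adenosine deaminase, then stimulated 30 min with […] (20 nM final). Intracellular cAMP read by HTRF after 1 h lysis/detection.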

In test [3] the target is adenosine A3 receptor (A3R) (Homo sapiens (Human), UniProt P0DMS8). The test can be described thus: Inhibition of adenosine A3 receptor cAMP signaling pathway (HTRF cAMP, CHO-K1/A3R cells). The note with it: Table 2; for IC50: CHO-K1/A3R cells, forskolin 10 μM, 2Cl-IB-MECA 5 nM, cAMP HTRF. In short, it runs like this: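 CHO-K1/A3R cells preincubated 30 min at room temperature with compound (100000–0.1 nM final) in HEPES/BSA buffer with rolipram and adenosine deaminase. Then stimulated 30 min with 10 μM forskolin plus 5 nM 2Cl-IB-MECA. Intracellular cAMP read by HTRF after 1 h.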
adenosine A3 receptor (A3R), sequence (P0DMS8 whole entry): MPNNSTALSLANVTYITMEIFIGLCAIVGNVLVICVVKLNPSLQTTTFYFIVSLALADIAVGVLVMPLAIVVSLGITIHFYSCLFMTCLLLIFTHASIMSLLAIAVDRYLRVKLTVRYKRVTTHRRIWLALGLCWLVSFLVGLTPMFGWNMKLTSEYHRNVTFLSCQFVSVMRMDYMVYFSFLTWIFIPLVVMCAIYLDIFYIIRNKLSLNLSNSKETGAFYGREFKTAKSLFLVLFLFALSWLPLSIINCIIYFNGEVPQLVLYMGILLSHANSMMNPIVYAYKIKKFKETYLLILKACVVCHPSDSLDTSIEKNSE

adenosine A2b receptor (A2bR), sequence (P29275 whole entry): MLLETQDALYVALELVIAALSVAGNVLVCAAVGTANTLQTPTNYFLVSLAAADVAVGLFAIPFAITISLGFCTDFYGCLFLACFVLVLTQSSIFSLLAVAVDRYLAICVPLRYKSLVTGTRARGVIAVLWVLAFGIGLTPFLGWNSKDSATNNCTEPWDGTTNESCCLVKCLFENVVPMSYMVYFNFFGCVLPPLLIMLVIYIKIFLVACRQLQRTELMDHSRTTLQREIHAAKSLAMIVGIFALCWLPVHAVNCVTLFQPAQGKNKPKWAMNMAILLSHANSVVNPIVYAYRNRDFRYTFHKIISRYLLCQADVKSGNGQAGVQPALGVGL
adenosine A2a receptor (A2aR), sequence (P29274 whole entry): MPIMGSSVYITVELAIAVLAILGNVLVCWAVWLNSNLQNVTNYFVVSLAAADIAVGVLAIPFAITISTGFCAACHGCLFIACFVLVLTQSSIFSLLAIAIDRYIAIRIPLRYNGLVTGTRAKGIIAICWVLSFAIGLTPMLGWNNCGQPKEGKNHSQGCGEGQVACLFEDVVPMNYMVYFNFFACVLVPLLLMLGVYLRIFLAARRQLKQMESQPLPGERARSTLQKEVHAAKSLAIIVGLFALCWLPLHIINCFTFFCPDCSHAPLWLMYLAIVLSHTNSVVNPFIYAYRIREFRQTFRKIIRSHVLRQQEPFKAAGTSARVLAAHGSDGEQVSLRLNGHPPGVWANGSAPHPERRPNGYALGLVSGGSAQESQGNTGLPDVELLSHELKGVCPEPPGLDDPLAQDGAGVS

Take `Cc1cc(-c2c(-c3ccc(F)cc3F)nc(N)n3cnnc23)cc(C(F)(F)F)n1` [Example 18, 7-(2,4-Difluorophenyl)-8-(2-methyl-6-(trifluoromethyl)pyridin-4-yl)-[1,2,4]triazolo[4,3-c]pyrimidin-5-amine]: the IC50 (as a rule, the concentration that inhibits the measured activity by half) in test [1] is 793 nM; in test [2] (Table 1, ethyl carbazole 20 nM) it was 3.96 nM; in test [2] (Table 2, ethyl carbazole 20 nM), 3.96 nM; in test [2] (Table 3, ethyl carbazole 20 nM), 0.75 nM; in test [3] it was over 10000 nM. Further, in test [3], the “IC50 ratio (A3R/A2aR)” value is >2.5 × 10^3.
As for `Cc1cc(-c2c(-c3ccc(F)cc3F)nc(N)n3cnnc23)cc(C(F)F)n1` [Example 20, 8-(2-(Difluoromethyl)-6-methylpyridin-4-yl)-7-(2,4-difluorophenyl)-[1,2,4]triazolo[4,3-c]pyrimidin-5-amine], the 50% inhibitory concentration (IC50) is 522 nM in test [1]; 2.33 nM in test [2] (Table 1, ethyl carbazole 20 nM); 2.33 nM in test [2] (Table 2, ethyl carbazole 20 nM); 2.33 nM in test [2] (Table 3, ethyl carbazole 20 nM); over 10000 nM in test [3]. In addition, in test [1] (selectivity A2bR over A2aR), the “IC50 ratio (A2bR/A2aR)” value was 224. Further, the “IC50 ratio (A3R/A2aR)” value in test [3] is on record as >4.3 × 10^3.

The record behind these values is patent US11312705B2, “Heteroaryl[4,3-C]pyrimidine-5-amine derivative, preparation method therefor, and medical uses thereof” (Jiangsu Hengrui Medicine Co., Ltd., priority 2017, dated 2022).
